A word on the IC50: it is the concentration needed to halve the response being measured. A lower IC50 goes with greater potency in that assay.

What all share (assay type): cell-based
What all share (conditions): 72 h; human CD4+ T cells under TH17-polarizing conditions, 3 days, supernatant ELISA
(ELISA stands for enzyme-linked immunosorbent assay.)

Test [1] relates to IL-17F. Nature of the test: Human TH17 Cytokine Inhibition as measured by ELISA (IL-17F). The essentials: (§1)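 Human CD4+ T cells from healthy-donor PBMCs were activated with plate-bound anti-CD3 and soluble anti-CD28 (1 ug/ml each) and TH17-polarized with IL-6, TGF-β1, IL-23 and IL-1β for 3 days in serum-free medium, with compound at varying concentrations (0.1% DMSO). Supernatant IL-17A/IL-17F quantified by ELISA, absorbance 450 nm.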

Test [2] deals with IL-21. Nature of the test: Human TH17 Cytokine Inhibition as measured by ELISA (IL-21).
For test [3], the system named is IL-17A. Description: Human TH17 Cytokine Inhibition as measured by ELISA (IL-17A). The procedure, abridged:
as §1

Turning to `O=C(CCc1ccccc1)N1CCC(Cn2ccc3cc(-c4cn[nH]c4C(F)(F)F)ccc32)CC1` [Example 117, 3-phenyl-1-(4-((5-(5-(trifluoromethyl)-1H-pyrazol-4-yl)-1H-indol-1-yl)methyl)piperidin-1-yl)propan-1-one], the half-inhibitory concentration (IC50) in test [1], in test [2] and in test [3] was < 10 µM in each case.
Take `O=C(c1ccccc1)N1CCC(CN2CCc3cc(-c4cn[nH]c4)ccc32)CC1` [Example 39, (4-((5-(1H-pyrazol-4-yl)indolin-1-yl)methyl)piperidin-1-yl)(phenyl)methanone]: the IC50 in test [1] was < 10 µM; in test [2], > 10 µM; in test [3], < 10 µM.
Consider `CC(C)C(=O)N1CCCC(Cn2ccc3cc(-c4cn[nH]c4)ccc32)CC1` (stereo not drawn) [Example 60, 1-(4-((5-(1H-pyrazol-4-yl)-1H-indol-1-yl)methyl)azepan-1-yl)-2-methylpropan-1-one], for which the results for the IC50 in test [1], in test [2] and in test [3] were < 10 µM, > 10 µM and < 10 µM, respectively.
Consider `O=C(NCc1ccccc1)N1CCC(CN2CCc3cc(-c4cn[nH]c4)ccc32)C1` (stereo not drawn) [Example 65, 3-((5-(1H-pyrazol-4-yl)indolin-1-yl)methyl)-N-benzylpyrrolidine-1-carboxamide], for which the 50% inhibitory concentration (IC50) in test [1], in test [2] and in test [3] was < 10 µM each time.
